The record followed here is patent publication US8859535B2, “Hydroxy substituted isoquinolinone derivatives” (Novartis AG, priority 2011, dated 2014).

In experiment [1] the target is T1, human MDM2 protein (amino acids 2-188) (Homo sapiens, UniProt Q00987).
T1 construct: human MDM2 protein (amino acids 2-188); made in house
Description: p53-MDM2 TR-FRET assay (p53-MDM2 Assay 1). It counts as binding. The conditions noted are these: 1.25 nM MDM2-biotinylated, 10 nM Cy5-p53 peptide; read-out: IC50 (μM) of p53-Hdm2 inhibition (TR-FRET) Assay 1. In a few lines:
(§1)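 C-terminally biotinylated MDM2 (aa 2-188, 1.25 nM) or MDM4 (aa 2-185, 2.5 nM) with Eu-streptavidin (0.625 nM), 15 min preincubation, then 10 nM Cy5-p53 peptide (aa18-26), 15 min room temperature; TR-FRET 665/620 nm ratio, IC50 by curve fit. Modified MDM2 Assay 2 uses 0.1 nM MDM2 and 0.1 nM Eu-streptavidin.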
For orientation: In TR-FRET formats the signal depends on donor and acceptor labels being close together.

Experiment [2] deals with T2, human MDM4 protein (amino acids 2-185) (Homo sapiens, UniProt O15151).
T2 construct: human MDM4 protein (amino acids 2-185); made in house
T2 sequence (O15151 2-185): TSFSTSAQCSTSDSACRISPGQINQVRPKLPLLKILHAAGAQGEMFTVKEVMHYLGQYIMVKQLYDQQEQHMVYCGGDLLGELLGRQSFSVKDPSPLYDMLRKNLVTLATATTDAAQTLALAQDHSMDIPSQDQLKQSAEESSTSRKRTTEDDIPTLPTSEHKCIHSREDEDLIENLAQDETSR
Description: p53-MDM4 TR-FRET assay (p53-MDM4 Assay 1). Type of experiment: binding. The following applies: 2.5 nM MDM4-biotinylated, 10 nM Cy5-p53 peptide; read-out: IC50 (μM) of p53-Hdm4 inhibition (TR-FRET) Assay 1. In a few lines: as §1

T1 sequence (Q00987 2-188): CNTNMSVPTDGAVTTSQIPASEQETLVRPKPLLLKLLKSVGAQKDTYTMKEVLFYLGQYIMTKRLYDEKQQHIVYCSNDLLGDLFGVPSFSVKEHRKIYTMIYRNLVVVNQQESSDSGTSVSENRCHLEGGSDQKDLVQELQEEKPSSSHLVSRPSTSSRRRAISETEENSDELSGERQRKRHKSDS

`COc1cc2c(cc1OC(C)C)[C@H](c1ccc(Cl)cc1)N(c1ccc(C(C)(O)c3ccc(F)c(F)c3)cc1)C(=O)C2` (stereo partly drawn) [Example 19, (S)-1-(4-Chloro-phenyl)-2-{4-[1-(3,4-difluoro-phenyl)-1-hydroxy-ethyl]-phenyl}-7-isopropoxy-6-methoxy-1,4-dihydro-2H-isoquinolin-3-one]: the IC50 in experiment [1] is 0.0446 µM; in experiment [2], 87.2 µM.
Regarding `COc1cc2c(cc1OC(C)C)[C@H](c1ccc(Cl)cc1)N(c1ccc(C(C)(O)C3CCN(C(=O)C(F)F)CC3)cc1)C(=O)C2` (stereo partly drawn) [Example 87, (S)-1-(4-Chloro-phenyl)-2-(4-{1-[1-(2,2-difluoro-acetyl)-piperidin-4-yl]-1-hydroxy-ethyl}-phenyl)-7-isopropoxy-6-methoxy-1,4-dihydro-2H-isoquinolin-3-one], the concentration for half-maximal inhibition (IC50) amounted to 0.0287 µM in experiment [1] and 23.9 µM in experiment [2].
In the case of `COc1cc2c(cc1OC(C)C)[C@H](c1ccc(Cl)cc1)N(c1ccc([C@@](C)(O)C34CC5CC(CC(C5)C3)C4)cc1)C(=O)C2` (single isomer, unassigned) [Example 142], the values for the IC50 in experiment [1] and in experiment [2] were 0.0054 µM and 13.2 µM, respectively.
For `COc1cc2c(cc1OC(C)C)[C@H](c1ccc(Cl)cc1)N(c1ccc(C(C)(O)C3CCN(C(=O)CC#N)CC3)cc1)C(=O)C2` (stereo partly drawn) [Example 88, 3-[4-(1-{4-[(S)-1-(4-Chloro-phenyl)-7-isopropoxy-6-methoxy-3-oxo-3,4-dihydro-1H-isoquinolin-2-yl]-phenyl}-1-hydroxy-ethyl)-piperidin-1-yl]-3-oxo-propionitrile], in that order: 0.0114 µM and 10.8 µM.
Regarding `COc1cc2c(cc1OC(C)C)[C@H](c1ccc(Cl)cc1)N(c1ccc(C(C)(O)C3CCOC3)cc1)C(=O)C2` (stereo partly drawn) [Example 48, (S)-1-(4-Chloro-phenyl)-2-{4-[1-hydroxy-1-(tetrahydro-furan-3-yl)-ethyl]-phenyl}-7-isopropoxy-6-methoxy-1,4-dihydro-2H-isoquinolin-3-one], the IC50 came to 0.0432 µM in experiment [1] and 44.5 µM in experiment [2].
For `COc1cc2c(cc1OC(C)C)[C@H](c1ccc(Cl)cc1)N(c1ccc([C@](C)(O)C3CC4CCC(C3)S4(=O)=O)cc1)C(=O)C2` (stereo partly drawn) [Example 173, (S)-1-(4-Chloro-phenyl)-2-{4-[(R)-1-(8,8-dioxo-8-thia-bicyclo[3.2.1]oct-3-yl)-1-hydroxy-ethyl]-phenyl}-7-isopropoxy-6-methoxy-1,4-dihydro-2H-isoquinolin-3-one], in that order: 0.0943 µM and 41.4 µM.
For `COc1cc2c(cc1OC(C)C)[C@H](c1ccc(Cl)cc1)N(c1ccc(C3(O)CCC3)cc1)C(=O)C2` [Example 51, (S)-1-(4-Chloro-phenyl)-2-[4-(1-hydroxy-cyclobutyl)-phenyl]-7-isopropoxy-6-methoxy-1,4-dihydro-2H-isoquinolin-3-one], in that order: 0.0731 µM and 45.3 µM.
With `COc1cc2c(cc1OC(C)C)[C@H](c1ccc(Cl)cc1)N(c1ccc(C(C)(O)c3ccn(C)n3)cc1)C(=O)C2` (stereo partly drawn) [Example 14, (S)-1-(4-Chloro-phenyl)-2-{4-[1-hydroxy-1-(1-methyl-1H-pyrazol-3-yl)-ethyl]-phenyl}-7-isopropoxy-6-methoxy-1,4-dihydro-2H-isoquinolin-3-one], the IC50 in experiment [1] was found to be 0.0494 µM; in experiment [2], 53.7 µM.
As for `COc1cc2c(cc1OC(C)C)[C@H](c1ccc(Cl)cc1)N(c1ccc(C(C)(O)C3CN(C4CCCCC4)C3)cc1)C(=O)C2` (stereo partly drawn) [Example 99, (S)-1-(4-Chloro-phenyl)-2-{4-[1-(1-cyclohexyl-azetidin-3-yl)-1-hydroxy-ethyl]-phenyl}-7-isopropoxy-6-methoxy-1,4-dihydro-2H-isoquinolin-3-one], the half-maximal inhibitory concentration (IC50) in experiment [1] worked out at 0.0279 µM; in experiment [2], 24.6 µM.
For `COc1cc2c(cc1OC(C)C)[C@H](c1ccc(Cl)cc1)N(c1ccc(C(C)(O)C3CN(C4CCOCC4)C3)cc1)C(=O)C2` (stereo partly drawn) [Example 98, (S)-1-(4-Chloro-phenyl)-2-(4-{1-hydroxy-1-[1-(tetrahydro-pyran-4-yl)-azetidin-3-yl]-ethyl}-phenyl)-7-isopropoxy-6-methoxy-1,4-dihydro-2H-isoquinolin-3-one] the same measures were 0.0342 µM and 34.7 µM.
In the case of `COc1cc2c(cc1OC(C)C)[C@H](c1ccc(Cl)cc1)N(c1ccc([C@](C)(O)C3CCOCC3)c(F)c1)C(=O)C2` (single isomer, unassigned) [Example 38], the half-inhibitory concentration (IC50) in experiment [1] turned out to be 0.383 µM; in experiment [2], 84 µM.
For `COc1cc2c(cc1OC(C)C)[C@H](c1ccc(Cl)cc1)N(c1ccc([C@](C)(O)C3CC[S+]([O-])CC3)cc1)C(=O)C2` (stereo partly drawn) [Example 170, (S)-1-(4-Chloro-phenyl)-2-{4-[(R)-1-hydroxy-1-(1-oxo-hexahydro-thiopyran-4-yl)-ethyl]-phenyl}-7-isopropoxy-6-methoxy-1,4-dihydro-2H-isoquinolin-3-one], in that order: 0.168 µM and 62.5 µM.
For `COc1cc2c(cc1OC(C)C)[C@H](c1ccc(Cl)cc1)N(c1ccc([C@@](C)(O)C3CC[S+]([O-])CC3)cc1)C(=O)C2` (stereo partly drawn) [Example 171, (S)-1-(4-Chloro-phenyl)-2-{4-[(S)-1-hydroxy-1-(1-oxo-hexahydro-1-thiopyran-4-yl)-ethyl]-phenyl}-7-isopropoxy-6-methoxy-1,4-dihydro-2H-isoquinolin-3-one], in that order: 0.0031 µM and 4.4 µM.
Consider `COc1cc2c(cc1OC(C)C)[C@H](c1ccc(Cl)cc1)N(c1ccc(C(C)(O)C3CCN(C(C)C)CC3)cc1)C(=O)C2` (stereo partly drawn) [Example 78, (S)-1-(4-Chloro-phenyl)-2-{4-[1-hydroxy-1-(1-isopropyl-piperidin-4-yl)-ethyl]-phenyl}-7-isopropoxy-6-methoxy-1,4-dihydro-2H-isoquinolin-3-one], for which the IC50 was found to be 0.0043 µM in experiment [1] and 3.18 µM in experiment [2].
For `COc1cc2c(cc1OC(C)C)[C@H](c1ccc(Cl)cc1)N(c1ccc(C(C)(O)C3CCN(S(C)(=O)=O)CC3)cc1)C(=O)C2` (stereo partly drawn) [Example 81, (S)-1-(4-Chloro-phenyl)-2-{4-[1-hydroxy-1-(1-methanesulfonyl-piperidin-4-yl)-ethyl]-phenyl}-7-isopropoxy-6-methoxy-1,4-dihydro-2H-isoquinolin-3-one], in that order: 0.0057 µM and 5.11 µM.
As for `COc1cc2c(cc1OC(C)C)[C@H](c1ccc(Cl)cc1)N(c1ccc(C(C)(O)C3CCCCC3)cc1)C(=O)C2` (stereo partly drawn) [Example 63, (S)-1-(4-Chloro-phenyl)-2-[4-(1-cyclohexyl-1-hydroxy-ethyl)-phenyl]-7-isopropoxy-6-methoxy-1,4-dihydro-2H-isoquinolin-3-one], the IC50 in experiment [1] was 0.0154 µM; in experiment [2], 40.5 µM.
Regarding `COc1cc2c(cc1OC(C)C)[C@H](c1ccc(Cl)cc1)N(c1ccc(C(C)(O)C3CCN(C=O)CC3)cc1)C(=O)C2` (stereo partly drawn) [Example 89, 4-(1-{4-[(S)-1-(4-Chloro-phenyl)-7-isopropoxy-6-methoxy-3-oxo-3,4-dihydro-1H-isoquinolin-2-yl]-phenyl}-1-hydroxy-ethyl)-piperidine-1-carbaldehyde], the IC50 in experiment [1] is 0.0028 µM; in experiment [2], 2.39 µM.
For `COc1cc2c(cc1OC(C)C)[C@H](c1ccc(Cl)cc1)N(c1ccc(C(C)(C)O)cc1)C(=O)C2` [Example 11, (S)-1-(4-Chloro-phenyl)-2-[4-(1-hydroxy-1-methyl-ethyl)-phenyl]-7-isopropoxy-6-methoxy-1,4-dihydro-2H-isoquinolin-3-one], in that order: 0.0555 µM and 51.6 µM.
For `COc1cc2c(cc1OC(C)C)[C@H](c1ccc(Cl)cc1)N(c1ccc(C(C)(O)C3CN(C(=O)N(C)C)C3)cc1)C(=O)C2` (stereo partly drawn) [Example 68, 3-(1-{4-[(S)-1-(4-Chloro-phenyl)-7-isopropoxy-6-methoxy-3-oxo-3,4-dihydro-1H-isoquinolin-2-yl]-phenyl}-1-hydroxy-ethyl)-azetidine-1-carboxylic acid dimethylamide] the same measures were 0.0152 µM and 15 µM.
For `COc1cc2c(cc1OC(C)C)[C@H](c1ccc(Cl)cc1)N(c1ccc(C(C)(O)C3CN(S(C)(=O)=O)C3)cc1)C(=O)C2` (stereo partly drawn) [Example 73, (S)-1-(4-Chloro-phenyl)-2-{4-[1-hydroxy-1-(1-methanesulfonyl-azetidin-3-yl)-ethyl]-phenyl}-7-isopropoxy-6-methoxy-1,4-dihydro-2H-isoquinolin-3-one] the same measures were 0.0179 µM and 18.9 µM.
For `CNC(=O)COc1cc2c(cc1OC(C)C)[C@H](c1ccc(Cl)cc1)N(c1ccc(C(C)(O)C3CCOCC3)cc1)C(=O)C2` (stereo partly drawn) [Example 148, 2-((S)-1-(4-Chloro-phenyl)-2-{4-[1-hydroxy-1-(tetrahydro-pyran-4-yl)-ethyl]-phenyl}-7-isopropoxy-3-oxo-1,2,3,4-tetrahydro-isoquinolin-6-yloxy)-N-methyl-acetamide], the IC50 is 0.0067 µM in experiment [1] and 2.64 µM in experiment [2].
For `COc1cc2c(cc1OC(C)C)[C@H](c1ccc(Cl)cc1)N(c1ccc([C@@](C)(O)C34CCC(CC3)O4)cc1)C(=O)C2` (single isomer, unassigned) [Example 136] the same measures were 0.0025 µM and 2.96 µM.
For `COc1cc2c(cc1OC(C)C)[C@H](c1ccc(Cl)cc1)N(c1ccc([C@@](C)(O)C3CCN(C(C)=O)CC3)cc1)C(=O)C2` (single isomer, unassigned) [Example 53], in that order: 0.0017 µM and 1.62 µM.

One may read the IC50 as the concentration needed to halve the response being measured.
